Experimental data taken from patent US9382204B2, “Inhibitors targeting the DNA-binding domain of human STAT3 for treatment of metastatic cancers” (Indiana University Research and Technology Corporation, priority 2013, dated 2016).
Like-named read-outs stand apart in the source and are kept apart here.

Columns and labels:
Format in all cases: cell-based, human
STAT3 [1] = test: STAT3-dependent luciferase reporter assay in MDA-MB-231-STAT3 stable cells; settings: 20 μM; for inhibition of luciferase expression compared to DMSO vehicle control: significant = p value less than 0.05; for activity at 20 µM: Homo sapiens
Experimental: FIG. 12. Identification of active inS3-54 analogues. (A) Effects of inS3-54 analogues on STAT3-dependent luciferase expression. MDA-MB-231 cells with stable STAT3-dependent luciferase expression were treated with DMSO control, 20 μM inSTAT3-54 or its analogues (A1-A79), followed by measurement of luciferase activity. (*p<0.05; **p<0.01; ***p<0.001).
MDA-MB-231-STAT3 stable cell line with high level of STAT3-dependent luciferase expression was exposed to candidate compounds at 20 μM in DMSO for 48 hours based on previous studies, and luciferase activity was measured using a luciferase assay kit (Promega, USA), following manufacturer's instructions. The final DMSO concentration in this and following assays was 0.1% (vol/vol).

STAT3 [2] = test: STAT3 dimerization (STAT3c non-reducing PAGE, HA/FLAG co-immunoprecipitation) in H1299 cells; settings: 20 μM
Excerpt: To eliminate the possibility that inS3-54 works by off-targeting to the SH2 domain, we tested if inS3-54 inhibits STAT3 dimerization using FLAG-STAT3c, which forms spontaneous homo-dimers via formation of intermolecular disulfide bond.
However, inS3-54 had no effect on production of dimeric STAT3c separated using non-reducing SDS-PAGE or non-denaturing PAGE (FIG. 6B) while S3I-201, a STAT3 inhibitor that binds to the SH2 domain, inhibited STAT3c dimerization (FIG. 6B). To confirm this observation, we performed a co-immunoprecipitation analysis of HA and FLAG-tagged STAT3.

[3] = tested on: A549 and MDA-MB-231 cells; test: Luminescence-based glutathione alkylation assay (GSH-Glo); settings: 20 μM inS3-54 48 hours, 15 mM iodoacetamide 30 minutes
Excerpt: FIG. 5. Effect of inS3-54 glutathione level. […] (***p<0.001).
To further eliminate the possibility that inS3-54 has alkylating activity, we performed luminescence-based glutathione alkylation assay.

[4] = mean of experiments, relative to DMSO

Compound	Rel. luciferase activity (%) 1 (STAT3 [1]; experiment 1, relative to DMSO) [%]	Rel. luciferase activity (%) 2 (STAT3 [1]; experiment 2, relative to DMSO) [%]	Rel. luciferase activity (%) 3 (STAT3 [1]; experiment 3, relative to DMSO) [%]	Rel. luciferase activity (%) Mean (STAT3 [1]; [4]) [%]	other results
COc1ccc(C=C2C=C(c3ccccc3)N(c3ccccc3Cl)C2=O)cc1 [Compound A57]	59.5	97.9	51.5	69.6	
COc1ccc(C=C2C=C(c3ccccc3)N(c3cccc(Cl)c3Cl)C2=O)cc1 [Compound A58]	78.9	81.8	36.8	65.8	
O=C1C(=Cc2ccc(Cl)cc2)C=C(c2ccccc2)N1c1ccc2ccccc2c1 [Compound A59]	124.7	148.5	80.5	117.9	
COc1ccc(C=C2C=C(c3ccccc3)N(c3ccc(NC(C)=O)cc3)C2=O)cc1 [Compound A60]	70.7	107.0	58.9	78.9	
O=C(O)c1ccc(N2C(=O)C(=Cc3ccc(-c4ccc(Cl)c(Cl)c4)o3)C=C2c2ccccc2)cc1 [Compound A61]	57.8	107.0	40.8	68.5	
O=C1C(=Cc2ccc(-c3ccc([N+](=O)[O-])cc3)o2)C=C(c2ccccc2)N1c1ccccc1 [Compound A62]	71.1	111.3	52.2	78.2	
O=C1C(=Cc2ccc(-c3ccc([N+](=O)[O-])cc3)o2)C=C(c2ccccc2)N1Cc1ccccc1 [Compound A64]	79.8	109.6	49.0	79.5	
CC(=O)c1cccc(N2C(=O)C(=Cc3ccc(Cl)cc3)C=C2c2ccccc2)c1 [Compound A65]	86.6	103.9	91.2	93.9	
COC(=O)c1cc(N2C(=O)C(=Cc3ccc(Cl)cc3)C=C2c2ccccc2)ccc1Cl [Compound A66]	90.3	110.5	73.6	91.5	
O=C1C(=Cc2ccc([N+](=O)[O-])cc2)C=C(c2ccccc2)N1c1ccccc1 [Compound A68]	71.2	84.5	68.7	74.8	inhibition of luciferase expression compared to DMSO vehicle control (STAT3 [1]): significantly inhibited
O=C(O)c1cc(N2C(=O)C(=Cc3ccc([N+](=O)[O-])cc3)C=C2c2ccccc2)ccc1O [Compound A70]	99.0	97.9	92.8	96.5	
COc1ccc(C=C2C=C(c3ccccc3)N(c3ccc(O)cc3)C2=O)cc1 [Compound A72]	34.2	58.1	34.1	42.1	inhibition of luciferase expression compared to DMSO vehicle control (STAT3 [1]): significantly inhibited
COc1ccc(C=C2C=C(c3ccccc3)N(c3ccccc3O)C2=O)cc1 [Compound A73]	72.9	97.8	103.4	91.3	
CCOC(=O)c1ccc(N2C(=O)C(=Cc3ccc(Cl)cc3)C=C2c2ccccc2)cc1 [Compound A74]	65.9	105.7	74.5	82.0	
COc1ccccc1N1C(=O)C(=Cc2ccc(Cl)cc2)C=C1c1ccccc1 [Compound A75]	28.7	71.4	45.4	48.5	inhibition of luciferase expression compared to DMSO vehicle control (STAT3 [1]): significantly inhibited
O=C1C(=Cc2ccc(Cl)cc2)C=C(c2ccccc2)N1c1cccc(Cl)c1 [Compound A76]	60.0	151.4	104.0	105.1	
CN(C)c1ccc(N2C(=O)C(=Cc3ccc([N+](=O)[O-])cc3)C=C2c2ccccc2)cc1 [Compound A77]	109.7	103.0	77.0	96.6	
COc1ccc(C=C2C=C(c3ccccc3)N(c3ccc(N(C)C)cc3)C2=O)cc1 [Compound A78]	71.7	107.9	61.0	80.2	
CCOC(=O)C1=C(C)N(c2ccc(OCC)cc2)C(=O)/C1=C\c1ccc([N+](=O)[O-])cc1 [Compound A79]					inhibition of luciferase expression compared to DMSO vehicle control (STAT3 [1]): significantly inhibited; activity at 20 µM (STAT3 [1]; experiment 1, relative to DMSO, read-out: Rel. luciferase activity (%) 1): 10.2%; activity at 20 µM (STAT3 [1]; experiment 2, relative to DMSO, read-out: Rel. luciferase activity (%) 2): 44.8%; activity at 20 µM (STAT3 [1]; experiment 3, relative to DMSO, read-out: Rel. luciferase activity (%) 3): 55.6%; activity at 20 µM (STAT3 [1]; mean of experiments, relative to DMSO, read-out: Rel. luciferase activity (%) Mean): 36.9%
Cc1ccc(S(=O)(=O)OCC(=O)Nc2ccc(C(=O)O)c(O)c2)cc1 [Compound S3I-201, reference compound]					production of dimeric STAT3c (STAT3 [2]; 24 hrs, non-reducing SDS-PAGE or non-denaturing PAGE): inhibited; co-immunoprecipitation between HA- and FLAG-tagged STAT3 (STAT3 [2]; H1299 cells): inhibited
NC(=O)CI [iodoacetamide, reference compound]					glutathione level [3]: significantly reduced
